Source: paper PMC12029179, “6-Chlorocoumarin Conjugates with Nucleobases and Nucleosides as Potent Anti-Hepatitis C Virus Agents” (Molecules, 2025)
pEC50, pIC50: −log10 of the molar value. Where two headings read alike, the source gives them in different places. Numbered stars: 1 amine (or outer) side, 2 acyl side, 3 side chain; on linkers, the order of the positions; unused ones are H or OH. Bridge positions count the residues as written; N and C are the ends. Square brackets hold non-standard residues; d marks the D form. Peptide text beside a SMILES is read from it. I, II: the chains in the order shown. Actinocin(9to1) = Cc1c2oc3c(C)ccc(C(=O)[*:1])c3nc-2c(C(=O)[*:2])c(N)c1=O; NMeV = CN[C@H](C(=O)O)C(C)C; Sar = CNCC(=O)O

Experiments:
[1] = system: HCV genotype 1b subgenomic replicon; experiment: Anti-HCV assay in Huh 5-2 cells (luciferase replicon readout); type: cell-based, hepatitis C virus (HCV); conditions: for pEC50: Huh-5-2, Huh 5-2 cells, luminescence
Source text: (§1) An evaluation of the antiviral effects of the conjugated compounds was initially performed in Huh 5-2 cells utilizing the HCV genotype 1b subgenomic replicon system, based on previously reported procedures. By analyzing the dose–response curves, we calculated the concentration of each compound that inhibited the viral replication by 50% (EC50) and the concentration that reduced the host-cell metabolic activity by 50% (CC50). These values were then used to compute the selectivity index (SI = CC50/EC50), which serves as an indicator of a compound’s therapeutic window. Even if an EC50 was determined from the dose–response curve in the antiviral assay, the compounds that were evaluated may not qualify as promising hits. […] It is likely that the antiviral activity observed in the other compounds is due to their nonspecific or pleiotropic effects on the host cell.
Huh 5-2 cells were plated in white, tissue culture-treated 96-well view plates (Packard, Canberra, Canada) at a density of 5 × 10^3 cells per well, using complete Dulbecco’s Modified Eagle Medium (DMEM) containing 250 µg/mL G418. Following 24 h incubation at 37 °C with 5% CO2, the medium was discarded and serial 3-fold dilutions of the test compounds—prepared in complete DMEM lacking G418—were added to reach a final volume of 100 µL per well. After an additional 4-day incubation period under the same conditions, the medium was removed, and luciferase activity was assessed using the Steady-Glo luciferase assay kit (Promega, Leiden, The Netherlands). Luminescence was measured with a Luminoskan Ascent reader (Thermo, Vantaa, Finland). The EC50 value was determined as the compound concentration resulting in a 50% decrease in luciferase signal.

[2] = Host-cell metabolic activity (MTS assay) in Huh 5-2 cells; type: cell-based; conditions: human
Source text: as §1

HCV subgenomic replicon = experiment: Anti-HCV assay in Huh 9-13 cells (real-time quantitative RT-PCR of replicon RNA); type: cell-based, hepatitis C virus (HCV); conditions: for % replicon RNA: normalized against no-drug control
Protocol: Furthermore, the antiviral activity of three of the hits (i.e., 7a, 7b, and 18) was validated by evaluation of the dose–response effect of treatment with the compounds at the level of viral RNA replication in the Huh 9-13 assay system. The real-time quantitative RT-PCR readout was used.
Huh 9-13 cells were seeded at 5 × 10^3 cells per well into 96-well plates containing complete DMEM supplemented with 1000 µg/mL G418. […] After 4 days of incubation, the culture medium was removed, and the cell monolayers were washed once with phosphate-buffered saline (PBS). Cells were then lysed using 350 µL of RLT buffer (Qiagen, Venlo, The Netherlands) as per the manufacturer’s protocol, and the lysates were stored at −80 °C for future analysis. Upon completion of sample collection, RNA was extracted, and the samples were analyzed through quantitative real-time PCR to measure their HCV replicon content. The real-time RT-PCR data for all samples were calibrated against the “no-drug control”.
* After collection of all samples, RNA was extracted and samples were analyzed by quantitative real-
time PCR for their HCV replicon content. Real-time RT-PCR values of all assayed samples were
normalized against the “no-drug control”.

Detroit 551 cells = experiment: Cell viability (MTS) assay in Detroit 551 cells; type: cell-based; conditions: for pIC50: Homo sapiens, read-out: IC50 (cell survival rate of 50%)
Protocol: Detroit 551 cells, a human fibroblast cell line, are routinely employed to assess both acute and chronic toxicity in normal human cells. Evaluating the cytotoxicity of compounds in Detroit 551 cells helps to identify potential safety concerns early in drug development. The three promising leads, 7a, 7b, and 18, were tested in a Detroit 551 assay using the antineoplastic and antibiotic agent actinomycin D as a positive control.
Detroit 551 cells were harvested and seeded into a 96-well plate, then incubated at 37 °C for 24 h. A serial dilution of the test compound was prepared in eight three-fold concentrations (20,000 nM, 6667 nM, 2222 nM, 741 nM, 247 nM, 82 nM, 27 nM, and 9 nM), and 10 µL of each dilution was added to the corresponding wells. The plate was then returned to 37 °C for an additional 72 h of incubation. After this incubation, a 3-(4,5-dimethylthiazol-2-yl)-5-(3-carboxymethoxyphenyl)-2-(4-sulfophenyl)-2H-tetrazolium (MTS) assay medium (mixed in a 2:0.1 ratio of MTS–phenazine methyl sulfate (PMS)) was prepared. The plate was moved to a biological safety cabinet, and 21 µL of the MTS medium was added to each well. The plate was then incubated at 37 °C for 90 min before absorbance was measured at 490 nm on a Victor 2 plate reader (PerkinElmer, Inc., Waltham, MA, USA). Data were subsequently analyzed to assess cytotoxicity.

Huh 9-13 cells = experiment: Host-cell metabolic activity in Huh 9-13 cells; type: cell-based
[3] = Host-cell metabolic activity in Huh 9-13 cells; type: cell-based; conditions: human
[4] = Hepatitis C virus, primary screening, tested starting at 50 μg/mL
[5] = Huh 5-2 cells, primary screening starting at 50 μg/mL
[6] = primary screening, tested starting at 50 μg/mL
[7] = Hepatitis C virus, secondary screen starting at 125 μg/mL, average of triplicate
[8] = Huh 5-2 cells, secondary screen starting at 125 μg/mL
[9] = secondary screen starting at 125 μg/mL

SMILES: Nc1nc(SCc2cc3cc(Cl)ccc3oc2=O)c2ncn([C@@H]3O[C@H](CO)[C@@H](O)[C@H]3O)c2n1 [Compound 9b, 2-Amino-6-(6′-chlorocoumarin-3′-yl)methylthio-9-(β-D-ribofuranos-1″-yl)purine]
- pEC50 [1, 4]: 4.82
- SI (CC50/EC50) [1, 5]: >6.9
- CC50 [2, 6]: > 102 µM

SMILES: O=c1oc2ccc(Cl)cc2cc1CSc1ccn([C@@H]2O[C@H](CO)[C@@H](O)[C@H]2O)c(=O)n1 [Compound 16a, 4-[(6′-Chlorocoumarin-3′-yl)methylthio]uridine]
- pEC50 [1, 4]: 4.80
- SI (CC50/EC50) [1, 5]: >6.8
- CC50 [2, 6]: > 108 µM

SMILES: O=c1oc2ccc(Cl)cc2cc1CSc1ncnc2[nH]cnc12 [Compound 7a, 6-[(6′-Chlorocoumarin-3′-yl)methylthio]purine]
- pEC50 [1, 4]: 5.07
- pEC50 [1, 7]: 5.32
- SI (CC50/EC50) [1, 5]: >17
- SI (CC50/EC50) [1, 8]: >76
- SI (CC50/EC50) (HCV subgenomic replicon): >20
- Quantity (HCV replicon RNA, real-time PCR) (HCV subgenomic replicon; 0.023 µg/ml): 1.12E-04
- % replicon RNA (HCV subgenomic replicon; 0.023 µg/ml): 93%
- Quantity (HCV replicon RNA, real-time PCR) (HCV subgenomic replicon; 0.069 µg/ml): 1.44E-04
- % replicon RNA (HCV subgenomic replicon; 0.069 µg/ml): 119%
- Quantity (HCV replicon RNA, real-time PCR) (HCV subgenomic replicon; 0.206 µg/ml): 1.36E-04
- % replicon RNA (HCV subgenomic replicon; 0.206 µg/ml): 112%
- Quantity (HCV replicon RNA, real-time PCR) (HCV subgenomic replicon; 0.617 µg/ml): 8.96E-05
- % replicon RNA (HCV subgenomic replicon; 0.617 µg/ml): 74%
- Quantity (HCV replicon RNA, real-time PCR) (HCV subgenomic replicon; 5.56 µg/ml): 2.70E-05
- % replicon RNA (HCV subgenomic replicon; 5.56 µg/ml): 22%
- Quantity (HCV replicon RNA, real-time PCR) (HCV subgenomic replicon; 16.67 µg/ml): 1.20E-05
- % replicon RNA (HCV subgenomic replicon; 16.67 µg/ml): 10%
- Quantity (HCV replicon RNA, real-time PCR) (HCV subgenomic replicon; 50 µg/ml): 4.54E-06
- % replicon RNA (HCV subgenomic replicon; 50 µg/ml): 4%
- Quantity (HCV replicon RNA, real-time PCR) (HCV subgenomic replicon; 1.852 (7b: 1.85) µg/ml): 7.41E-05
- % replicon RNA (HCV subgenomic replicon; 1.852 (7b: 1.85) µg/ml): 61%
- pEC50 (HCV subgenomic replicon; Hepatitis C virus, real-time quantitative RT-PCR readout): 5.14
- EC50 (HCV subgenomic replicon; Hepatitis C virus, supplement dose-response data): 2.5 µg/mL
- CC50 [2, 6]: > 145 µM
- CC50 [2, 9]: > 363 µM
- cell death at highest tested concentration (Detroit 551 cells; Detroit 551 cells, 20 μM): none of the three compounds induced cell death
- pIC50 (Detroit 551 cells; Detroit 551 cells, 72 h incubation, tested starting at 20.0 μM): < 4.70
- % cell metabolism (Huh 9-13 cells; 0.023 µg/ml): 109%
- % cell metabolism (Huh 9-13 cells; 0.069 µg/ml): 104%
- % cell metabolism (Huh 9-13 cells; 0.206 µg/ml): 109%
- % cell metabolism (Huh 9-13 cells; 0.617 µg/ml): 105%
- % cell metabolism (Huh 9-13 cells; 5.56 µg/ml): 112%
- % cell metabolism (Huh 9-13 cells; 16.67 µg/ml): 115%
- % cell metabolism (Huh 9-13 cells; 50 µg/ml): 92%
- % cell metabolism (Huh 9-13 cells; 1.852 (7b: 1.85) µg/ml): 109%
- CC50 ([3]; compound 18 tested starting at 125 µg/mL): > 145 µM
- CC50 ([3]; supplement dose-response data): > 50 µg/mL

SMILES: Cc1c[nH]c(=O)nc1SCc1cc2cc(Cl)ccc2oc1=O [Compound 11b, 4-(6′-Chlorocoumarin-3′-yl)methylthio-5-methyluracil]
- pEC50 [1, 4]: 4.80
- SI (CC50/EC50) [1, 5]: >9.1
- CC50 [2, 6]: > 149 µM

SMILES: Nc1nc2[nH]c(SCc3cc4cc(Cl)ccc4oc3=O)nc2c(=O)[nH]1 [Compound 5b, 8-[(6’-Chlorocoumarin-3’-yl)methylthio]guanine]
- pEC50 [1, 4]: 4.29
- SI (CC50/EC50) [1, 5]: >2.6
- CC50 [2, 6]: > 133 µM

SMILES: O=c1nc(SCc2cc3cc(Cl)ccc3oc2=O)cc[nH]1 [Compound 11a, 4-[(6′-Chlorocoumarin-3′-yl)methylthio]uracil]
- pEC50 [1, 4]: 4.74
- SI (CC50/EC50) [1, 5]: >8.6
- CC50 [2, 6]: > 156 µM

SMILES: Nc1nc2c(nc(SCc3cc4cc(Cl)ccc4oc3=O)n2[C@@H]2O[C@H](CO)[C@@H](O)[C@H]2O)c(=O)[nH]1 [Compound 5a, 8-[(6′-Chlorocoumarin-3′-yl)methylthio]guanosine]
- pEC50 [1, 4]: < 4.01
- CC50 [2, 6]: > 98 µM

SMILES: Cc1cn([C@H]2C[C@H](O)[C@@H](CO)O2)c(=O)nc1SCc1cc2cc(Cl)ccc2oc1=O [Compound 16b, 4-[(6′-Chlorocoumarin-3′-yl)methylthio]thymidine]
- pEC50 [1, 4]: 4.23
- SI (CC50/EC50) [1, 5]: >1.9
- CC50 [2, 6]: > 111 µM

SMILES: Nc1ncnc2[nH]c(SCc3cc4cc(Cl)ccc4oc3=O)nc12 [Compound 3a, 8-[(6′-Chlorocoumarin-3′-yl)methylthio]adenine]
- pEC50 [1, 4]: 5.00
- SI (CC50/EC50) [1, 5]: 6.7
- CC50 [2, 6]: 69 µM

SMILES: Nc1ncnc2c1nc(SCc1cc3cc(Cl)ccc3oc1=O)n2[C@@H]1O[C@H](CO)[C@@H](O)[C@H]1O [Compound 3b, 8-[(6′-Chlorocoumarin-3′-yl)methylthio]adenosine]
- pEC50 [1, 4]: 4.49
- SI (CC50/EC50) [1, 5]: 1.5
- CC50 [2, 6]: 48 µM

SMILES: Nc1nc(SCc2cc3cc(Cl)ccc3oc2=O)c2nc[nH]c2n1 [Compound 9a, 2-Amino-6-[(6′-chlorocoumarin-3′-yl)methylthio]purine]
- pEC50 [1, 4]: 4.19
- pEC50 [1, 7]: 4.32
- SI (CC50/EC50) [1, 5]: >2.1
- SI (CC50/EC50) [1, 8]: >7.3
- CC50 [2, 6]: > 139 µM
- CC50 [2, 9]: > 347 µM

SMILES: Cc1c2oc3c(C)ccc(C(=O)N[C@@H]4C(=O)N[C@H](C(C)C)C(=O)N5CCC[C@H]5C(=O)N(C)CC(=O)N(C)[C@@H](C(C)C)C(=O)O[C@@H]4C)c3nc-2c(C(=O)N[C@@H]2C(=O)N[C@H](C(C)C)C(=O)N3CCC[C@H]3C(=O)N(C)CC(=O)N(C)[C@@H](C(C)C)C(=O)O[C@@H]2C)c(N)c1=O [Actinomycin D, actinomycin D, reference compound] (I: T[dV]P[Sar][NMeV] / II: T[dV]P[Sar][NMeV]; ester I:1-I:C, II:1-II:C; linker I:N-II:N via Actinocin(9to1))
- pIC50 (Detroit 551 cells; Detroit 551, 72 h): 4.81

SMILES: Nc1ccnc(SCc2cc3cc(Cl)ccc3oc2=O)n1 [Compound 20, 4-Amino-2-[(6′-chlorocoumarin-3′-yl)methylthio]pyrimidine]
- pEC50 [1, 4]: 4.28
- pEC50 [1, 7]: 4.68
- inhibition at 50 µg/mL ([1]; Hepatitis C virus, Huh 5-2 cells, at 50 μg/mL): 69.8%
- inhibition at 125 µg/mL ([1]; Hepatitis C virus, Huh 5-2 cells, at 125 μg/mL): < 80%
- SI (CC50/EC50) [1, 5]: >2.9
- SI (CC50/EC50) [1, 8]: >19
- CC50 [2, 6]: > 156 µM
- CC50 [2, 9]: > 391 µM
